Test results published in patent US11135209B2, “Compositions and methods for inhibiting protein kinases” (UNIVERSITY OF HOUSTON SYSTEM, priority 2017, dated 2021).

Experiments:
[1] = test system: NOD2 cellular signaling in HEK-Blue cells expressing human NOD2; assay: NOD2 cell signaling assay (HEK-Blue, NFkB-SEAP reporter, L18-MDP stimulated); format: cell-based; conditions: read-out: IC50 (nM) HEKBlue RIPK2
Procedure: NOD2 Cell Signaling Assay.
HEK-Blue cells expressing human NOD2 and NFkB-SAEP reporter (Invivogen) are seeded into 96 well clear plates at 7.5×10^3 cells per well in 100 μL of DMEM media supplemented with 10% FBS and 1% antibiotic-antimycotic mix. Cells are allowed to attach for 48 h in 5% CO2 tissue culture incubator at 37° C. On the morning of the experiment, media in the wells is replaced with 100 pt of HEK-Blue detection media (Invivogen). Cells are treated with the inhibitors, diluted in DMSO (0.5 μL per well) for 15 min in 5% CO2 tissue culture incubator at 37° C. After that, cells are stimulated by the addition of 1 ng/well L18-MDP (Invivogen). Cells are incubated in 5% CO2 tissue culture incubator at 37° C. for 8 h and absorbance, corresponding to the SEAP in the media, is determined in Wallac3V plate reader (Perkin Elmer). Inhibition, %=(1−((sample signal-unstimulated and DMSO treated cells)/(L18-MDP stimulated and DMSO treated cells−unstimulated and DMSO treated cells)))*100. IC50 values are calculated based on a dose range of inhibitor concentrations using non-linear regression in GraphPad Prism software.

human ALK2 = biological target: T1, human ALK2 (Homo sapiens, UniProt Q04771); assay: Activin-Like Kinase 2 (ALK2) enzyme assay; format: biochemical
T1 sequence (Q04771 21-509): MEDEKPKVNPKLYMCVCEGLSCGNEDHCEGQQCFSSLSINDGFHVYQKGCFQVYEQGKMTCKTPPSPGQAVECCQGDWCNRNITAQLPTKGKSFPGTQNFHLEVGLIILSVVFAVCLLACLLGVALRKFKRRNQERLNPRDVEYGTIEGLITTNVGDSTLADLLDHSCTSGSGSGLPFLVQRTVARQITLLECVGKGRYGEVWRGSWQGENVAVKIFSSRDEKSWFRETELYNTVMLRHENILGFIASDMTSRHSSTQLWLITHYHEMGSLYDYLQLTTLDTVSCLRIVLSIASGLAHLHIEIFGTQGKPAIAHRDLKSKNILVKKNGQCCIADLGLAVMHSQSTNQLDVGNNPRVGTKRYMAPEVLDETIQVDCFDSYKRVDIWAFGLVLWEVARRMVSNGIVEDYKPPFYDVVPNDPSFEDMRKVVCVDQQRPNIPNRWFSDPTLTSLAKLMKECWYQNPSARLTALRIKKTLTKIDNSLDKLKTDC
Procedure: Activin-Like Kinase 2 (ALK2) Enzyme Assay
Enzyme inhibitory activity was evaluated in a standard kinase enzyme assay by incubating human ALK2 with the protein substrate casein (1 mg/mL) and γ-^33ATP (10 μM) in the presence of various concentrations of test compounds (10 nM-100 μM). After 30 min the amount of ^33P-casein was determined.

[2] = biological target: Recombinant RIPK2 protein (Homo sapiens, UniProt O43353); assay: Receptor Interacting Protein Kinase 2 (RIPK2) enzyme assay (ADP-Glo); format: biochemical
Chain of Recombinant RIPK2 protein (O43353 whole entry, species assumed): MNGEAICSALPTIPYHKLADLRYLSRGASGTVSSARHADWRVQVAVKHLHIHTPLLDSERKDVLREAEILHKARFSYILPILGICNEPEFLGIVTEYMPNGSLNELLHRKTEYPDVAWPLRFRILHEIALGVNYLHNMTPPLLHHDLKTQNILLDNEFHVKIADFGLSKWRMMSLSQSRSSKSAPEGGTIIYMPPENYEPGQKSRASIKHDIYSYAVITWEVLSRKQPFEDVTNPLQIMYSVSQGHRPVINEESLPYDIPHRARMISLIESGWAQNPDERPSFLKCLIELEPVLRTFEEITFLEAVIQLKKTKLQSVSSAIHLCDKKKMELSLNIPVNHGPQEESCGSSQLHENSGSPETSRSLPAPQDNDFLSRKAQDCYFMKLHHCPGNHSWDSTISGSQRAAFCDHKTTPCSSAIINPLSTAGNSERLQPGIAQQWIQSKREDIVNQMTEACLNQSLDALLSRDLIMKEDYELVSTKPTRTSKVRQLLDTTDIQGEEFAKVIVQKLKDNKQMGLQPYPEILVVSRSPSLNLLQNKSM
Procedure: Receptor Interacting Protein Kinase 2 (RIPK2) Enzyme Assay
Recombinant RIPK2 protein (20 ng per reaction) is diluted in the reaction buffer consisting of 40 mM Tris (pH 7.5); 20 mM MgCl2; 0.1 mg/ml BSA; 50 μM DTT. Diluted protein is added to low volume white 384 well plates (2 μL/well). Inhibitors are diluted in reaction buffer (final 25% DMSO), 1 μL is added to each well and incubated 5 min at room temperature. Reactions are initiated by the addition of 2 μL of 100 μM ATP and 1 mg/ml RS repeat peptide (SignalChem) in the reaction buffer. Plates are sealed with plastic coverslips and incubated at room temperature for 2 h. Reactions are stopped by the addition of 5 μL of ADP-Glo reagent (Promega) and ADP generation reaction is performed for 40 min at room temperature. Luminescence signal is generated by the addition of 10 μL of Kinase detection reagent (Promega) for 30 min at room temperature Luminescence signals are determined using appropriate luminescence plate-reader (typical integration time 0.3-1 sec). To calculate percent inhibition, average background signal is subtracted from test well and maximal signal wells. Inhibition, %=(1−(test signal/maximal signal))*100. The percent inhibition at a specified concentration is determined or IC50 values are calculated based on a dose range of inhibitor concentrations using non-linear regression in GraphPad Prism software.

| IC50 (human ALK2) [nM] | IC50 [2] [nM] | Compound | IC50 [1] [nM] |
| --- | --- | --- | --- |
| > 100000 | > 100 | CCCS(=O)(=O)N1CCc2ccc(-c3cc(-c4ccc(N5CCNCC5)cc4)cnc3N)cc21 [CSLP46, 5-(4-(Piperazin-1-yl)phenyl)-3-(1-(propylsulfonyl)indolin-6-yl)pyridin-2-amine] | > 1000 |
| > 100000 | > 10 | CCCS(=O)(=O)N1CCOc2ccc(-c3cc(-c4ccc(N5CCNCC5)cc4)cnc3N)cc21 [CSLP47, 5-(4-(Piperazin-1-yl)phenyl)-3-(4-(propylsulfonyl)-3,4-dihydro-2H-benzo[b][1,4]oxazin-6-yl)pyridin-2-amine] | > 1000 |
| > 100 | > 10 | CCCS(=O)(=O)Nc1cc(-c2cc(-c3ccc(N4CCNCC4)cc3)cnc2N)ccc1O [CSLP48, N-(5-(2-Amino-5-(4-(piperazin-1-yl)phenyl)pyridin-3-yl)-2-hydroxyphenyl)propane-1-sulfonamide] | > 1000 |
| > 100000 | > 1000 | CCCS(=O)(=O)Nc1cc(-c2cc(-c3ccc(N4CCNCC4)cc3)cnc2N)cc(OCC)c1OCC [CSLP49] | > 1000 |
| > 1000 | > 1000 | COc1cc(-c2cc(-c3ccc(N4CCNCC4)cc3)cnc2N)cc(NS(=O)(=O)c2ccccc2)c1C [CSLP51, N-(5-(2-Amino-5-(4-(piperazin-1-yl)phenyl)pyridin-3-yl)-3-methoxy-2-methylphenyl)benzenesulfonamide] | > 1000 |
| > 100000 | > 100 | CCCS(=O)(=O)Nc1cc(-c2cc(-c3ccc(N4CCNCC4)cc3)cnc2N)cc2c1OCCO2 [CSLP52, N-(7-(2-Amino-5-(4-(piperazin-1-yl)phenyl)pyridin-3-yl)-2,3-dihydrobenzo[b][1,4]dioxin-5-yl)propane-1-sulfonamide] | > 1000 |
| > 1000 | > 1000 | CCOc1cc(-c2cc(-c3ccc(N4CCNCC4)cc3)cnc2N)cc(NS(=O)(=O)Cc2ccccc2)c1C [CSLP54, N-(5-(2-Amino-5-(4-(piperazin-1-yl)phenyl)pyridin-3-yl)-3-ethoxy-2-methylphenyl)-1-phenylmethanesulfonamide] | > 1000 |
| > 100000 | > 1000 | CCCS(=O)(=O)Nc1cc(-c2cc(-c3ccc(N4CCNCC4)cc3)cnc2N)cc(OCC)c1OC [CSLP56] | > 1000 |
| > 1000 | > 100 | CCCS(=O)(=O)N1CCOc2c(F)cc(-c3cc(-c4ccc(N5CCNCC5)cc4)cnc3N)cc21 [CSLP57, 3-(8-Fluoro-4-(propylsulfonyl)-3,4-dihydro-2H-benzo[b][1,4]oxazin-6-yl)-5-(4-(piperazin-1-yl)phenyl)pyridin-2-amine] | > 100 |
| > 100 | > 10 | CCCS(=O)(=O)Nc1cc(-c2cc(-c3cccc(N4CCNCC4)c3)cnc2N)cc(F)c1OC [CSLP58, N-(5-(2-Amino-5-(3-(piperazin-1-yl)phenyl)pyridin-3-yl)-3-fluoro-2-methoxyphenyl)propane-1-sulfonamide] | > 10 |

| Compound | IC50 (human ALK2) [nM] | IC50 [2] [nM] | IC50 [1] [nM] |
| --- | --- | --- | --- |
| CCCS(=O)(=O)Nc1cc(-c2cc(-c3ccc(N4CCNCC4)cc3)cnc2C)cc(F)c1OC [CSLP53, N-(3-Fluoro-2-methoxy-5-(2-methyl-5-(4-(piperazin-1-yl)phenyl)pyridin-3-yl)phenyl)propane-1-sulfonamide] | > 100000 | > 1000 | > 1000 |
